From US5304551A, “Anti-fungal compounds” (British Technology Group Limited, priority 1990, dated 1994)
Converted amounts (≈) assume the structure as drawn.

Tests used:
Assay type in all cases: cell-based
[1] = system: Candida albicans NCYC 597; assay: Antifungal activity, agar plate disc zone of inhibition, approximate MIC, Candida albicans; conditions: NCYC597, C. albicans, compound in dimethyl sulphoxide, 13 mm discs on nutrient agar, 24h and 48h incubation, read-out: MICs, C. albicans
Protocol: (§1) Candida albicans NCYC 597; Trichophyton mentagrophytes NCPF 224 and Microsporum audounii NCPF 638 were used throughout as test organisms. These are open deposits at the National Collection of Yeast Cultures, Norwich UK and the National Collection of Pathogenic Fungi of the Commonwealth Mycological Institute, Kew UK.
(§2) All organisms were maintained in a nutrient broth containing (gl^-1): Lab Lemco (Oxoid), 5; Peptone (Oxoid), 5; NaCl, 10. Cultures for testing antimicrobial activity were grown in this medium for 18h prior to use. Solidified media were prepared by the addition of Agar (Oxoid No. 3) 1.5% w/v.
(§3) Antifungal activity was estimated using solutions of the compound (as the free acid) in dimethyl sulphoxide. A range of concentrations was used for each compound to permit calculation of an approximate MIC. 13 mm discs (Whatman) were soaked in a solution of the appropriate dilution, either allowed to dry, or placed directly onto the surface of nutrient agar plates seeded with the required test organism.
(§4) After 24h incubation the diameters of zones of inhibition were measured. After a further 24h incubation, the plates were re-examined and zones re-measured.

[2] = system: Trichophyton mentagrophytes NCPF 224; assay: Antifungal activity, agar plate disc zone of inhibition, approximate MIC, Trichophyton mentagrophytes; conditions: for MIC: Trichophyton mentagrophytes, NCPF224, approximate MIC, compound in dimethyl sulphoxide, 13 mm discs on nutrient agar, 24h and 48h incubation, read-out: MICs, T. ment.; for activity against the athlete's foot organism (in words): athlete's foot and ringworm organisms
Protocol: as §1, §2, §3, §4

[3] = system: Microsporum audounii NCPF 638; assay: Antifungal activity, agar plate disc zone of inhibition, approximate MIC, Microsporum audounii; conditions: for MIC: Microsporum, NCPF638, M. audounii, approximate MIC, compound in dimethyl sulphoxide, 13 mm discs on nutrient agar, 24h and 48h incubation; for activity against the ringworm organism (in words): athlete's foot and ringworm organisms
Protocol: as §1, §2, §3, §4

Row | Structure (SMILES) | MIC [1] [µg/mL] | MIC ([2]; T. mentagrophytes) [µg/mL] | MIC [3] [µg/mL] | activity against the athlete's foot organism (in words) [2] | activity against the ringworm organism (in words) [3] | MICs, T. ment. (result in words) ([2]; T. mentagrophytes, no MIC / no activity)
1 | C[C@H](CCCO)[C@H]1CC[C@H]2[C@@H]3[C@H](O)C[C@@H]4C[C@H](O)CC[C@]4(C)[C@H]3CC[C@]12C [chenodeoxycholic, Z = OH, 3α,7α,24-trihydroxy-5β-cholane] | 7000 (≈ 18500 µM) | 30 (≈ 79.2 µM) | 50 (≈ 132 µM) |  |  | 
2 | C[C@H](CCCCO)[C@H]1CC[C@H]2[C@@H]3[C@H](O)C[C@@H]4C[C@H](O)CC[C@]4(C)[C@H]3C[C@H](O)[C@]12C [cholic, Z = CH2 OH, 3α,7α,12α,25-tetrahydroxy-25-homo-5β-cholane] | 450 (≈ 1100 µM) | 100 (≈ 245 µM) | 20 to 50 (≈ 48.9 to 122 µM) |  |  | 
3 | C[C@H](CCCO)[C@H]1CC[C@H]2[C@@H]3CC[C@@H]4C[C@H](O)CC[C@]4(C)[C@H]3C[C@H](O)[C@]12C [deoxycholic, Z = OH, 3α,12α,24-trihydroxy-5β-cholane] | 730 (≈ 1930 µM) | 10 (≈ 26.4 µM) | 10 (≈ 26.4 µM) | outstanding | outstanding | 
4 | C[C@H](CCCCO)[C@H]1CC[C@H]2[C@@H]3CC[C@@H]4C[C@H](O)CC[C@]4(C)[C@H]3C[C@H](O)[C@]12C [deoxycholic, Z = CH2 OH, 3α,12α,25-trihydroxy-25-homo-5β-cholane] | 150 (≈ 382 µM) | 30 (≈ 76.4 µM) | 5 (≈ 12.7 µM) | outstanding | outstanding | 
5 | C[C@H](CCCCO)[C@H]1CC[C@H]2[C@@H]3[C@H](O)C[C@@H]4C[C@H](O)CC[C@]4(C)[C@H]3CC[C@]12C [chenodeoxycholic, Z = CH2 OH, 3α,7α,25-trihydroxy-25-homo-5β-cholane] | 110 (≈ 280 µM) |  | 270 (≈ 688 µM) |  |  | NONE
6 | C[C@H](CCCO)[C@H]1CC[C@H]2[C@@H]3[C@H](O)C[C@@H]4C[C@H](O)CC[C@]4(C)[C@H]3C[C@H](O)[C@]12C [cholic, Z = OH, 3α,7α,12α,24-tetrahydroxy-5β-cholane] | 900 (≈ 2280 µM) | 1650 (≈ 4180 µM) | 3800 (≈ 9630 µM) |  |  | 
